Test [1] relates to spores from Bacillus pumilus strain SB3189. The experiment in a line: Germinant testing of heat-activated spores, decrease in relative OD580. Conditions: 3 mM. It is filed as cell-based.
The test system of test [2] is spores from Bacillus amyloliquefaciens strain SB3615. The description is as above. The note with it: substance alone, 3 mM; 37° C., 70 minutes.
In test [3] the test system is Bacillus pumilus strain SB3189 spores. The experiment in a line: Spore germination by dipicolinic acid (DPA) release (Tb-DPA fluorescence) after L-valine treatment. It is filed as cell-based. The note with it: for Gmax: then 10 mM AAGFK, mean of 3. The procedure: This was performed three consecutive times.
Germination of spores in these studies was determined by measuring dipicolinic acid (DPA). DPA is about 10% of the mass of endospores, all of which is generally released when germination is triggered. Boiling spores generally releases all of the DPA. DPA release was detected using terbium chloride (TbCl3), as described below.
To perform the germination assays, 30 μl of spores were added to wells of a 96-well flat-bottom microtiter plate. Subsequently, 35 μl of a 250 μM TbCl3 stock was added. At time 0, 85 μl of a 10 mM L-alanine+10 mM AGFK (10 mM AGFK is 10 mM each of L-asparagine, D-glucose, D-fructose, and KCl) (10 mM AAGFK) was added. […] Tb-DPA is excited at 270 nm and emits at 545 nm. All experimental samples were tested in triplicate. Baseline controls for each sample were generated by omitting L-alanine and these were performed in duplicate. All sample wells were measured immediately after […] was added (time 0) and then over time. For each time point, the data were normalized to values for the spores that had been boiled for two hours to force 100% release of DPA from the spores.

Test [4] concerns spores from Bacillus megaterium strain SB3112. The experiment in a line: Germinant testing of heat-activated spores, decrease in relative OD580. It is filed as cell-based. The note with it: Example 2 studies, 3 mM.
Test [5] relates to Bacillus megaterium strain SB3112 spores. The experiment in a line: Spore germination by DPA release after L-asparagine treatment. The note with it: for Gmax: mean of 3. It is filed as cell-based.

Turning to `O=C(CO)[C@@H](O)[C@H](O)[C@H](O)CO` [D-fructose], in test [1], the “germination of spores by substance alone” value is reported as “None of L-alanine, L-cysteine, D-fructose, or sucrose alone, at a concentration of 3 mM, caused germination”.

As for `C[C@H](N)C(=O)O` [L-alanine], the “germination of spores by substance alone” value in test [1] is listed as “None of L-alanine, L-cysteine, D-fructose, or sucrose alone, at a concentration of 3 mM, caused germination”. Besides, the germination of spores entry in test [2] is reported as “could cause germination”.

Turning to `N[C@@H](CS)C(=O)O` [L-cysteine], in test [1], the “germination of spores by substance alone” value is listed as “None of L-alanine, L-cysteine, D-fructose, or sucrose alone, at a concentration of 3 mM, caused germination”.

Consider `CC(C)[C@H](N)C(=O)O` [L-valine], for which the germinant activity entry in test [1] (tested in combination with individual sugars, and in combination with salts) is listed as “did not show germinant activity”. The Gmax in test [3] (0.5 mM L-valine 24 hours at 4° C.) amounted to 74%; in test [3] (0.5 mM L-valine 24 hours at 22° C.), 6%; in test [3] (3.0 mM L-valine 24 hours at 4° C.) it was 70%; in test [3] (3.0 mM L-valine 24 hours at 22° C.) it was 43%; in test [3] (10.0 mM L-valine 24 hours at 4° C.), 76%; in test [3] (10.0 mM L-valine 24 hours at 22° C.), 77%. Also, the “change of Gmax” value in test [3] (0.5 mM L-valine at 22° C.) is listed as “the Gmax decreased”. Besides, the figures for the “increase in Gmax compared to the control that did not contain L-valine” value in test [3] (3.0 mM L-valine at 22° C.) and in test [3] (10.0 mM L-valine at 22° C.) were approximately 3 fold and approximately 5 fold, respectively. Besides, in test [3] (L-valine 0.5-10.0 mM, 4° C. and 22° C.), the “change of Tlag” value is “Tlag was not changed”. Besides, the “effects on germination parameters” value in test [3] (L-valine incubated with spores at 4° C.) was “small effects on germination parameters”.

As for `NC(=O)C[C@H](N)C(=O)O` [L-asparagine], the germinant behavior result in test [4] is recorded as “not shown to have germinant behavior”. The “Gmax compared to spores not pretreated with L-asparagine” value is recorded as “increased Gmax” in test [5] (4° C., native and heat-activated spores, all tested concentrations); “increased Gmax” in test [5] (22° C., 3.0 mM, both native and heat-activated spores); “also increased Gmax” in test [5] (22° C., 10 mM, native spores). The Gmax in test [5] (heat activated spores, 0.5 mM L-asparagine overnight at 4° C.) is given as 106%; in test [5] (heat activated spores, 0.5 mM L-asparagine overnight at 22° C.), 81%; in test [5] (heat activated spores, 3.0 mM L-asparagine overnight at 4° C.), 109%; in test [5] (heat activated spores, 3.0 mM L-asparagine overnight at 22° C.) it was 102%; in test [5] (heat activated spores, 10.0 mM L-asparagine overnight at 4° C.) it was 114%; in test [5] (heat activated spores, 10.0 mM L-asparagine overnight at 22° C.), 79%. The Gmax stood at 29% in test [5] (native spores, 0.5 mM L-asparagine overnight at 4° C.); 56% in test [5] (native spores, 0.5 mM L-asparagine overnight at 22° C.); 28% in test [5] (native spores, 3.0 mM L-asparagine overnight at 4° C.); 100% in test [5] (native spores, 3.0 mM L-asparagine overnight at 22° C.); 29% in test [5] (native spores, 10.0 mM L-asparagine overnight at 4° C.); 81% in test [5] (native spores, 10.0 mM L-asparagine overnight at 22° C.).

Regarding `OC[C@H]1O[C@@](CO)(O[C@H]2O[C@H](CO)[C@@H](O)[C@H](O)[C@H]2O)[C@@H](O)[C@@H]1O` [sucrose], the “germination of spores by substance alone” value in test [1] is reported as “None of L-alanine, L-cysteine, D-fructose, or sucrose alone, at a concentration of 3 mM, caused germination”.

Values taken from patent US20190241864A1, “Composition Comprising Non-Germinant and Bacterial Spores” (NOVOZYMES BIOAG A/S, priority 2016, published 2019).
